The subject of data set [1] is mouse model. As to conditions: 100 mg/kg, intra-peritoneal; cited from earlier work.
Data set [2] has as its system MDA-MB-231 cells. Nature of the data set: MTS cytotoxicity assay. Format: cell-based, Human. As to conditions: increasing concentrations of recombinant TRAIL, 48 hours. As to the method: (§1) MTS cytotoxicity assay. Cells were plated 2×10^4 per well in triplicate wells and incubated overnight. […] Cytotoxicity was assessed using a CellTiter 96 Non-Radioactive Cell Proliferation Assay and medium background was subtracted. Results are presented as percent of HBSS-treated control.
(Formazan colour is commonly taken as a measure of viable cells.)

Data set [3] concerns CAMA-1 cells. Nature of the data set: MTS cytotoxicity assay. It counts as cell-based, Human. As to conditions: increasing concentrations of recombinant TRAIL, 48 hours. The method, then: as §1
For data set [4], the system named is HCC 1937 cells. Nature of the data set: MTS cytotoxicity assay. Format: cell-based, Human. As to the method:
(§2) MTS cytotoxicity assay. Cells were plated 2×10^4 per well in triplicate wells and incubated overnight. Serial dilutions of soluble TRAIL in Hank's balanced salt solution (HBSS) were added to the wells and cells were incubated for an additional 36 hours. Cytotoxicity was assessed using a CellTiter 96 Non-Radioactive Cell Proliferation Assay and medium background was subtracted. Results are presented as percent of HBSS-treated control.

Data set [5] has as its system MCF-7 cells. As to the kind of experiment: MTS cytotoxicity assay. Format: cell-based, Human. As to the method: as §2
For data set [6], the system named is HCC 1937 cells. As to the kind of experiment: Annexin V determination by flow cytometry. As to conditions: 100 ng of TRAIL for 36 hours. It counts as cell-based, Human. As to the method:
(§3) Annexin V determination. 1×10^6 cells were plated per 60 mm dish and cultured overnight. Cells were than left untreated or treated with soluble TRAIL (100 ng/ml) and incubated for additional 36 hours. Cells were than trypsinized and washed with 1× Binding Buffer. For each condition, half of the cell suspension was left untreated and another half was incubated for 15 minutes at room temperature in the dark with Annexin V. Immediately after staining, cells were analyzed by flow cytometry.
(A flow cytometer gives signals particle by particle.)

Data set [7] concerns MCF-7 cells. As to the kind of experiment: Annexin V determination by flow cytometry. It counts as cell-based, Human. As to conditions: 100 ng of TRAIL for 36 hours. The method, then: as §3
For data set [8], the system named is p53-RE (p53C#18) in wild type mouse embryonic fibroblasts. As to the kind of experiment: p53 response element luciferase assay with cisplatin. It counts as cell-based. As to conditions: wild type MEF; increasing concentrations at the time of transfection. As to the method: FIG. 12. Treatment with cisplatin enhances activity of p53-RE in cells with wild type p53. Wild type and p53−/− mouse embryonic fibroblasts (MEF) were transfected with p53C#18 as described above. Increasing concentrations of cisplatin were added at the time of transfection. Luciferase assay was performed 36-48 hours later and transfection efficiency was normalized.
To determine whether treatment with cisplatin (which increases steady-state level of p53 protein) can enhance activity of the p53-RE in normal cells, wild type and p53−/− mouse embryonic fibroblasts were treated with increasing concentrations of cisplatin at the time of transfection (FIG. 12).

Entries after “also recorded” stand apart in the source; their conditions may differ.

We go through three molecules from patent publication US20080108582A1, “Methods And Compositions For Combinatorial Approaches To Cancer Gene Therapy” (priority 2003, published 2008).

Turning to `CCc1c2c(nc3ccc(OC(=O)N4CCC(N5CCCCC5)CC4)cc13)-c1cc3c(c(=O)n1C2)COC(=O)[C@]3(O)CC` [irinotecan], in data set [1], the “drug-related toxicity (in words)” value is “without drug-related toxicity” and the “survival in a mouse model (in words)” value was “prolong survival”.
In the case of “TRAIL: soluble TRAIL, residues 114-281 of the soluble domain of human TRAIL, expressed in E. coli (BIOMOL)”, the “cell viability by MTS (in words)” value in data set [2] is recorded as “significant TRAIL-dependent reduction of viability; also recorded: biphasic effect”; in data set [3], “significant TRAIL-dependent reduction of viability”. For the same molecule, the “sensitivity to TRAIL-induced apoptosis by MTS (in words)” value in data set [4] and in data set [5] was “completely resistant” throughout. The “increase in Annexin V staining” value in data set [6] and in data set [7] was “approximately 17%” in each case.
Regarding `N.N.[Cl][Pt][Cl]` [Cisplatin, cisplatin], the “effect on activity of p53-RE (in words)” value in data set [8] was “enhanced activity of p53C#18 in cells with wild type p53 in a dose-dependent manner”.
